The values that follow come from ChEMBL document CHEMBL5331141.

Active and inactive are the calls of the source. The calls are words filed in the database; no cut-off is given here.

This test has as its system HEK293. Briefly: Effect on HEK293 cells lacking human mu opioid receptor assessed as inhibition of cAMP accumulation at 1 uM. It is filed as functional, cell-based. On the technique in general: Changes in cAMP serve as a functional read-out for many G protein-coupled receptors.
Take `C=C(C)[C@@H]1CCC(C)=C[C@H]1c1c(O)cc(CCC)cc1O`: the result was inactive.
Turning to `C=C(C)[C@@H]1CCC(C)=C[C@H]1c1c(O)cc(CCCCC)cc1O`, the outcome was inactive.
As to `C=CCN1CC[C@]23c4c5ccc(O)c4O[C@H]2C(=O)CC[C@@]3(O)[C@H]1C5`, the result was inactive.
